This is an account of results in ChEMBL document CHEMBL1201862, “PubChem BioAssay data set” (2004).

Assay [1] concerns the target T1, Oxysterols receptor LXR-beta (Homo sapiens, UniProt P55055).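 Also: Cell-based luminescence dose-response assay of agonist activity at LXR, run as a confirmatory counterscreen to a daf-12 agonist screen; HEK293 cells with Gal4-LXR fusion and GAL4-driven luciferase reporter; agonist potency from rising luciferase signal of a Gal4-LXR reporter.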
T1 sequence (P55055 whole entry): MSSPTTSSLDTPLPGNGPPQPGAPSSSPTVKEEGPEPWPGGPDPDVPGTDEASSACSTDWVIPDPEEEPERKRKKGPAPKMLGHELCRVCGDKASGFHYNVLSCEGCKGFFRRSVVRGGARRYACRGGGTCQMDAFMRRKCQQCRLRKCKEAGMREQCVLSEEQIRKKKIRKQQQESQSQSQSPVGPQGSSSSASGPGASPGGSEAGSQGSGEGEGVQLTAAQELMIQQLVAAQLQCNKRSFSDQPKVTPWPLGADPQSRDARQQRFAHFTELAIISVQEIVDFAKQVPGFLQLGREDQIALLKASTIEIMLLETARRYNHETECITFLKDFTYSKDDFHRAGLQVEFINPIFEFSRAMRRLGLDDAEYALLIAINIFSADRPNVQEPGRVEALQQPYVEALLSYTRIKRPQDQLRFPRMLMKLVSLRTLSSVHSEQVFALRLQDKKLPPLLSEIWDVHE
Type of assay: functional, cell-based.

In a further assay the target is Prothrombin (Homo sapiens, UniProt P00734). Put plainly: Thrombin 1536 HTS Dose Response Confirmation. [Related pubchem assays: 1046 (Thrombin 1536 HTS; hits were confirmed in this assay)]. Type of assay: functional.
Assay [2] addresses T2, Heat shock factor protein 1 (Mus musculus, UniProt P38532).
T2 sequence (P38532 whole entry): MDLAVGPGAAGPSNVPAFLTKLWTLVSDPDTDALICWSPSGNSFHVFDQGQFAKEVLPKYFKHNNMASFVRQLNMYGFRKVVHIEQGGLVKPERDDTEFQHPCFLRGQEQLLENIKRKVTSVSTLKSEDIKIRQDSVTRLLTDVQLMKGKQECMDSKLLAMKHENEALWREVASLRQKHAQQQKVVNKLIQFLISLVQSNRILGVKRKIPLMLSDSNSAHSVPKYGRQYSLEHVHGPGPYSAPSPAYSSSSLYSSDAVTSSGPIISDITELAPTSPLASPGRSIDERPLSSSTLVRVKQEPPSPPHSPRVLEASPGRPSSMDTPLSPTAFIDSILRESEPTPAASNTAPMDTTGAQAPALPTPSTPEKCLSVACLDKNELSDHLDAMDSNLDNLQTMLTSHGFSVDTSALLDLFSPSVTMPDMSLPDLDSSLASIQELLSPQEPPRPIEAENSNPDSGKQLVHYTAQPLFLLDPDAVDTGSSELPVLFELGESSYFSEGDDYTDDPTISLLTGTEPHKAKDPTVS
The experiment in a line: inhibition of MG132-induced HSE-luciferase signal, confirmation, cell-based, NIH3T3, luminescence, dose retest (AID 2382).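 Also: NIH3T3 fibroblasts with HSF1-driven luciferase reporter stressed by proteasome inhibitor MG132; luminescence from HSF1-driven luciferase expression after 8 hours of MG132 stress.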 In kind it is functional.

Another assay concerns Vero. Put plainly: host cell cytotoxicity of antiviral hits, dose response, cytotoxicity control for West Nile virus antiviral project, secondary assay (AID 1650). The following applies: Chlorocebus sabaeus. Type of assay: functional.
For assay [3], the target named is Eukaryotic translation initiation factor 4E (Mus musculus, UniProt P63073). Put plainly: eIF4E–eIF4G protein interaction inhibitors, dose response, biochemical, TR-FRET (AID 855).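 Also: potency for disrupting eIF4E binding to eIF4GI seen as loss of FRET.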 In kind it is functional. In general terms: Time-resolved FRET reads energy transfer from a long-lived donor to a nearby acceptor.
For assay [4], the target named is T3, Estrogen receptor beta (Homo sapiens, UniProt Q92731).
Assay [5] deals with T3, Estrogen receptor beta. The experiment in a line: ERβ–SRC-3 coactivator interaction inhibitors, confirmation, orthogonal assay, biochemical, ELISA, streptavidin-HRP readout (AID 1060). A general note: In an ELISA, binding on a coated surface is turned into a signal by an enzyme label.
The target of assay [6] is T4, Fatty acid synthase (Homo sapiens, UniProt P49327). The experiment in a line: FAS thioesterase domain inhibitors, dose response, biochemical, kinetic fluorescence intensity (AID 624326).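 Also: rate of fluorescence rise from hydrolysis of a fluorogenic O-methyl fluorescein ester substrate.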 In kind it is functional.
The target in a further assay is Genome polyprotein (dengue virus type 2, UniProt P29990). Put plainly: Dengue-2 NS5 methyltransferase inhibitors, primary screen, biochemical, confirmation dose response (AID 588689). Type of assay: functional.
Assay [7] has as its target T4, Fatty acid synthase. Put plainly: FAS thioesterase domain inhibitors, dose response, biochemical, endpoint fluorescence intensity, uHTS hits (AID 624327).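 Also: fluorescence from hydrolysis of an O-methyl fluorescein acyl ester substrate by the enzyme.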 In kind it is functional.
Another assay addresses Kallikrein-7 (Homo sapiens, UniProt P49862). Put plainly: Fluorescence Intensity-based biochemical primary high throughput dose response assay to identify activators of kallikrein-7 (K7) zymogen.
Another assay concerns the target Paired box protein Pax-8 (Homo sapiens, UniProt Q06710). Put plainly: inhibitors of PAX8-driven TPO luciferase reporter, dose response, RMG-I cells, cherry-pick (AID 687027).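 Also: luciferase reporter driven by Pax8 target thyroperoxidase promoter measured by SteadyGlo luminescence.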 In kind it is functional, cell-based. (In general: In a reporter assay the amount or activity of a reporter protein is the signal.)
Assay [8] in a line: NIH:OVCAR-3 ovarian cancer cell cytotoxicity, dose response, PAX8 inhibitor project, plate reader, dry powder samples (AID 743044). Type of assay: functional, cell-based.
Assay [9] is described as follows: P. falciparum Dd2 growth inhibitors, dose response, SYBR Green, dry powder samples, set 9 (AID 1159568). In kind it is functional, cell-based.
A short description of assay [10]: P. falciparum Dd2 growth inhibitors, dose response, SYBR Green, dry powder samples (AID 1159566).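 Also: potency for growth inhibition with lower SYBR green DNA signal.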 Type of assay: functional, cell-based.
Assay [11] can be described thus: P. falciparum 3D7-ScDHODH growth inhibitors, dose response, SYBR Green, dry powder samples (AID 1159570).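 Also: parasite growth measured after 72 hours of compound exposure.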 Type of assay: functional, cell-based.
Assay [12] is described as follows: P. falciparum Dd2 growth inhibitors, dose response, SYBR Green, cherry-picked samples (AID 1159567). In kind it is functional, cell-based.
Assay [13] is described as follows: P. falciparum ATP4 D1247Y mutant growth inhibitors, dose response, NITD609-resistant line, SYBR Green, dry powder (AID 1159571).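 Also: parasites synchronized at ring stage by sorbitol before testing.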 Type of assay: functional, cell-based.
The next assay concerns the target T5, Protein RecA (Mycobacterium tuberculosis, UniProt P9WHJ3).
T5 sequence (P9WHJ3 whole entry): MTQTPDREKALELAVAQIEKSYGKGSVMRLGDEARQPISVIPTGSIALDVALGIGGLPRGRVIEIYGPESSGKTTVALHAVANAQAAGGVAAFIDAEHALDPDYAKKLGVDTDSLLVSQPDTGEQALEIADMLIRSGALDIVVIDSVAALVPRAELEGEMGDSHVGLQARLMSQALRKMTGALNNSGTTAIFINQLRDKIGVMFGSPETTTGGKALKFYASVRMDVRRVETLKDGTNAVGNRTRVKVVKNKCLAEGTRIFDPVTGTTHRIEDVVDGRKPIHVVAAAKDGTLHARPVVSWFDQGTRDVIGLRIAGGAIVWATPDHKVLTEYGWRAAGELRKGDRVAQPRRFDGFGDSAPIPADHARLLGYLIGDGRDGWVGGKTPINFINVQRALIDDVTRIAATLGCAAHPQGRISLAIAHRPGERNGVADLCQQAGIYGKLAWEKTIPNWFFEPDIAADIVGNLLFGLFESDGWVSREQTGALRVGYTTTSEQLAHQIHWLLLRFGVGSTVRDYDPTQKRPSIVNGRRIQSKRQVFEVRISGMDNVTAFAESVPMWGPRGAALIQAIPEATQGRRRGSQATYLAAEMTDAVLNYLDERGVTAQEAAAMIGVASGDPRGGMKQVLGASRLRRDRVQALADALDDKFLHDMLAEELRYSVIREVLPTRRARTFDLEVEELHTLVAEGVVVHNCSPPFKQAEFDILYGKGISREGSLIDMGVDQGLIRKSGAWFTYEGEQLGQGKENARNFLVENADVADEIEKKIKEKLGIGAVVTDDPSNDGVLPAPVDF
The experiment in a line: Fluorescence Cell-Free Homogeneous Dose Retest to Identify Inhibitors of RecA-Intein Splicing Activity. [Related pubchem assays (depositor defined):AID2097, AID2223, AID489010, AID492950]. Type of assay: functional.

Assay [14] deals with T6, Replicative DNA helicase DnaB (Mycobacterium tuberculosis, UniProt P9WMR3).
T6 sequence (P9WMR3 whole entry): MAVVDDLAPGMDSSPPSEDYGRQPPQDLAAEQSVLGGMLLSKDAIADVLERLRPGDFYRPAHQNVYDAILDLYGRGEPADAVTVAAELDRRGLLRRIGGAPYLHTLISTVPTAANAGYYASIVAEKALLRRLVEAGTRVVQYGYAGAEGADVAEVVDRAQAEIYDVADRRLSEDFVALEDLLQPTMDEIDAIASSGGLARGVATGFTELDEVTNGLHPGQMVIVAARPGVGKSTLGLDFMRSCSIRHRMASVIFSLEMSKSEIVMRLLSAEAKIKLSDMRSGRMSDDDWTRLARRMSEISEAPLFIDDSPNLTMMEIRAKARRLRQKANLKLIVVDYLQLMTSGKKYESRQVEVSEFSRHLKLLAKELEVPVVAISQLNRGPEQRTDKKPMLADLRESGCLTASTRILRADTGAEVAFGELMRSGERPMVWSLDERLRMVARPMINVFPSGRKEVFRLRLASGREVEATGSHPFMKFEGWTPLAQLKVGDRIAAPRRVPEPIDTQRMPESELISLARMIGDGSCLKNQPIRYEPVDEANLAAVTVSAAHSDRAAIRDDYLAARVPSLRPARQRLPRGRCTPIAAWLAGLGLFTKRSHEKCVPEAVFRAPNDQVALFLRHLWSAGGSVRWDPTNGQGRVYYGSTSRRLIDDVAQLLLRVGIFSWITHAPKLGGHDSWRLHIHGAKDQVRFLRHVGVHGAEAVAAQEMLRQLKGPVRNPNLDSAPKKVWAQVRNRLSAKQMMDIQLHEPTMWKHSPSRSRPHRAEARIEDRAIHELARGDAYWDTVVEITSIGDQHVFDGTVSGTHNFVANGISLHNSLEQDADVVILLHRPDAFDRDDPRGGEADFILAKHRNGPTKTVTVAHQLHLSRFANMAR
Put plainly: DnaB intein splicing inhibitors, dose response, biochemical, cell-free fluorescence (AID 449749). Type of assay: functional.

The term EC50 denotes the concentration giving half of the maximal effect. A word on the IC50: it is the concentration that inhibits the measured activity by half. Usually CC50 stands for the concentration giving 50% cytotoxicity. As usually defined, the AC50 is the midpoint of the concentration-response curve, whichever way the signal moves.

Activity calls are given as the source filed them.

T3 sequence (Q92731 whole entry): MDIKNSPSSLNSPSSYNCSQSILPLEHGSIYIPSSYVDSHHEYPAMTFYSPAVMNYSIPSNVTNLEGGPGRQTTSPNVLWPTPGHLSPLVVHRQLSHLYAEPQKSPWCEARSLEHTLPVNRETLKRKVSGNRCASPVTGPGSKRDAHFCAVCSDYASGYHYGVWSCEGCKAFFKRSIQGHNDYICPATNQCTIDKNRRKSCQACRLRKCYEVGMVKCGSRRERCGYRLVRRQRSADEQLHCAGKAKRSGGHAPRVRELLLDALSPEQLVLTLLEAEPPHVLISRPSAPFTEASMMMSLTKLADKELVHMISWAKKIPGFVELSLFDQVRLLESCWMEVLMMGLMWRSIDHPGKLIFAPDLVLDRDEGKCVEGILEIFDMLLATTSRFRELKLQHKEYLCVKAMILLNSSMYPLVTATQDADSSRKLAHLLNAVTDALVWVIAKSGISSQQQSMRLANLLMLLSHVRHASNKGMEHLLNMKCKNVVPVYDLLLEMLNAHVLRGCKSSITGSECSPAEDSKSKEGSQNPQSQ
T4 sequence (P49327 whole entry, the tested form may be a part): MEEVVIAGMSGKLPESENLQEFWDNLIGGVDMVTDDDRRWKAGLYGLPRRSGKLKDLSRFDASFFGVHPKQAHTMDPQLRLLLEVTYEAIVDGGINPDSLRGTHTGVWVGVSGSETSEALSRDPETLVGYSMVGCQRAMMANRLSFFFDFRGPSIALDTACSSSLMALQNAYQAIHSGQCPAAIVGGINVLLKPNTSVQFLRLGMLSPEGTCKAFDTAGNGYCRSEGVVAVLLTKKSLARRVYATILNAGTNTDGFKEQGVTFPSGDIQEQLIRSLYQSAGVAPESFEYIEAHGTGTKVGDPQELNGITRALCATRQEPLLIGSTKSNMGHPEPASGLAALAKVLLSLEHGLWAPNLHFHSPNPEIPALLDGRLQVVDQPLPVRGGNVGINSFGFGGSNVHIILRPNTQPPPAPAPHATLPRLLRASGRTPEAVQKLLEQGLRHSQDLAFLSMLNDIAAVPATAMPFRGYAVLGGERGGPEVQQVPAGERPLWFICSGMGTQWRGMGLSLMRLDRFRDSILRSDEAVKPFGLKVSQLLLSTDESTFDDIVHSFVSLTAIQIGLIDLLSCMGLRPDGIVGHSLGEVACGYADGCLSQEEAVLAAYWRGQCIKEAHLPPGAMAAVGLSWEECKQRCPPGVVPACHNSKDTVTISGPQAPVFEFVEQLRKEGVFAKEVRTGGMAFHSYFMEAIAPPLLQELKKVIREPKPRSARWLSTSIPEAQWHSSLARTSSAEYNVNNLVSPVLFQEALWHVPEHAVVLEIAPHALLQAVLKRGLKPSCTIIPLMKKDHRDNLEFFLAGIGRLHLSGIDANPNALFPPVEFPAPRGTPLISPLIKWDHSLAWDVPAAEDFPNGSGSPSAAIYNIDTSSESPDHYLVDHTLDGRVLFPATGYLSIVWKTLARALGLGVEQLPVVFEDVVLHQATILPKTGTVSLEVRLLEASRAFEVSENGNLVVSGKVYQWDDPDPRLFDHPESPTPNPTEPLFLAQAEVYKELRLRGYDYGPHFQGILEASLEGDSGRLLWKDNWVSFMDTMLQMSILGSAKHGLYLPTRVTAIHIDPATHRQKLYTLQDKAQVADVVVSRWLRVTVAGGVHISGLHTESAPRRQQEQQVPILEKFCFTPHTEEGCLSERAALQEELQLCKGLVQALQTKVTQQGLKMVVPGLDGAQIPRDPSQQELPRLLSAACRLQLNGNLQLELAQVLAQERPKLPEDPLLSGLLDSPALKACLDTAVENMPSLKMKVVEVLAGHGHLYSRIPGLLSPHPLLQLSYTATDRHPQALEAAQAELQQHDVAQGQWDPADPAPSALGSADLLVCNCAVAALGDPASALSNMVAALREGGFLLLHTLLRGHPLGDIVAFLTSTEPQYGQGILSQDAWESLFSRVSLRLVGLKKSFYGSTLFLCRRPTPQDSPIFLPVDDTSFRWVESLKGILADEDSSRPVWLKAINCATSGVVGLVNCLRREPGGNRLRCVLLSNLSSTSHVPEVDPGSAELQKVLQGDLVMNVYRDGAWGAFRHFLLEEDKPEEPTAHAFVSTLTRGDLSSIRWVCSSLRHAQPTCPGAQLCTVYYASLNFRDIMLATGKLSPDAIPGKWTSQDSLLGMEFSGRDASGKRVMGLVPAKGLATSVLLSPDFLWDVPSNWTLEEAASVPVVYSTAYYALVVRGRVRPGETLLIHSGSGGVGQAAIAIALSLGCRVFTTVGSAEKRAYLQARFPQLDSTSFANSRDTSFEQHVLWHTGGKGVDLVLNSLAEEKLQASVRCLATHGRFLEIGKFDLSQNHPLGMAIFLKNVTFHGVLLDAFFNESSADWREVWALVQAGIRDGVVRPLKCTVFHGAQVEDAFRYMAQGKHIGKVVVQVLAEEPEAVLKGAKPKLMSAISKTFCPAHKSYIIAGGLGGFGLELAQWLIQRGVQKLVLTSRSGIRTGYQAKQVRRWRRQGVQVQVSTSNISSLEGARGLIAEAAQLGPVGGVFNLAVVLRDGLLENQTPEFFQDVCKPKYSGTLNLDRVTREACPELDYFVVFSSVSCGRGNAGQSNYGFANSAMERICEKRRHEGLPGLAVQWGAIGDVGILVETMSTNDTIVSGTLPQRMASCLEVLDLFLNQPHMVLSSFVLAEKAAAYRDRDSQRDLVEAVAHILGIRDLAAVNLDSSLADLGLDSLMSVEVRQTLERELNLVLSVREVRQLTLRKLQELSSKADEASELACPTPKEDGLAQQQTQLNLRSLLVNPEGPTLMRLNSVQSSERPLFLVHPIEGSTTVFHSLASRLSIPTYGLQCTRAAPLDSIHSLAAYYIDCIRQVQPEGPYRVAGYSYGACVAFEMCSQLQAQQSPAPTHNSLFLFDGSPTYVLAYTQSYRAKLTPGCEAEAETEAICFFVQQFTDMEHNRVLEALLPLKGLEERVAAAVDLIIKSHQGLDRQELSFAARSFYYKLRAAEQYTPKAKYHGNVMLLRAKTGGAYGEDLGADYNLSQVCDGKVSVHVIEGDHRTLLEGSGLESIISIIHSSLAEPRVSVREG
Eukaryotic translation initiation factor 4E, sequence (P63073 whole entry): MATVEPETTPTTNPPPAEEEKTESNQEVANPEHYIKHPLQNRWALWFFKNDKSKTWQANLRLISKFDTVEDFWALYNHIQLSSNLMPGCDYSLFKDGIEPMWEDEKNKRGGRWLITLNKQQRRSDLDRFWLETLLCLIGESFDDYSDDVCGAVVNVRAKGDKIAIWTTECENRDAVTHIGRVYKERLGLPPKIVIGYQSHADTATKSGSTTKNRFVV
Genome polyprotein, sequence (P29990 2492-3391 limits assumed): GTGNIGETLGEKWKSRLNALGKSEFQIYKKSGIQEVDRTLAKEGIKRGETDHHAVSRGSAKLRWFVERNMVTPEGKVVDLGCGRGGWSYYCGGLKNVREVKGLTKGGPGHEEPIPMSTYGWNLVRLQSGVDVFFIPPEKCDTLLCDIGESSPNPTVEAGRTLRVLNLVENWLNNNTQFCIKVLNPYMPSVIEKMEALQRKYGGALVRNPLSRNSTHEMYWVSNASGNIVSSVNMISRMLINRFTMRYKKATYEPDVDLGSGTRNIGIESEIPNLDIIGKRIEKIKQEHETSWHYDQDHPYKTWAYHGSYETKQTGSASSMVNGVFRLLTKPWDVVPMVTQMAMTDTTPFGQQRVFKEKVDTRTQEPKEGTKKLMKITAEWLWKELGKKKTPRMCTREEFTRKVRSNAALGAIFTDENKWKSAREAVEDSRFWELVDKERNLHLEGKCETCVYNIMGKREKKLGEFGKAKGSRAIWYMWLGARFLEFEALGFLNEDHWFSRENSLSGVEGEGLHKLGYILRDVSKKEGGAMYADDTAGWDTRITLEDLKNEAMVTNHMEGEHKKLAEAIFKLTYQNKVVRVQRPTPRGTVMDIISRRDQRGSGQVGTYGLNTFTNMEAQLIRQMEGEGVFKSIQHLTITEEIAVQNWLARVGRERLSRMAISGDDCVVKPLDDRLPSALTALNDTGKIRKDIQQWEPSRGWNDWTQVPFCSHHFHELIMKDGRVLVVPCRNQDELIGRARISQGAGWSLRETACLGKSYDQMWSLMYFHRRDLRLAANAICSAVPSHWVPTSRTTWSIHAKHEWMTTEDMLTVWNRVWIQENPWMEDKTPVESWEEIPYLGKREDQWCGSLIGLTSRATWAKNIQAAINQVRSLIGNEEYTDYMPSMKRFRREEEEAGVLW
Paired box protein Pax-8, sequence (Q06710 whole entry): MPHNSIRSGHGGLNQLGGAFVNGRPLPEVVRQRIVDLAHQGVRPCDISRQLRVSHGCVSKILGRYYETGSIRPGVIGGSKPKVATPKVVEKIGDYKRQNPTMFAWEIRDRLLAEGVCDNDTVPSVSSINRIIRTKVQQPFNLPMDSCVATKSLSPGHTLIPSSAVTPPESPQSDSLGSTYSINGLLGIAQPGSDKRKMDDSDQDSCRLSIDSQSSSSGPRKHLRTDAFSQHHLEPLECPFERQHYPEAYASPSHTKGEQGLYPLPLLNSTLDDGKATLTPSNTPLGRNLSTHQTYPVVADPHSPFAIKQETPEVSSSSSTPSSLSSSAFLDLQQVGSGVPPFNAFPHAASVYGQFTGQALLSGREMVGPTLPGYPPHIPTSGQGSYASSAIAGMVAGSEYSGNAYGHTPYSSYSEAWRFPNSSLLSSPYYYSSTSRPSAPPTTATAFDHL
Kallikrein-7, sequence (P49862 whole entry): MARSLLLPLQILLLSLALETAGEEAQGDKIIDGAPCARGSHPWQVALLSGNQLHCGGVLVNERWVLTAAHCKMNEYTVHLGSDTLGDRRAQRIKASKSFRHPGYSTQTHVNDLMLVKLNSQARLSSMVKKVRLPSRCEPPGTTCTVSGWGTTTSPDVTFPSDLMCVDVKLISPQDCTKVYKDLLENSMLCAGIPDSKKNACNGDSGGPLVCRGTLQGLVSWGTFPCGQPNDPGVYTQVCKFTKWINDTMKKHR

Regarding `CCOC(=O)c1c(C)nc(-c2ccccc2)nc1N`, the EC50 (in “cells”; in assay [1]) was > 67.5 µM (inactive) in each case. Regarding `C=CCOc1ccc(C(=O)C2=C(O)C(=O)N(CCCOC)C2c2ccncc2)cc1` (centres undefined), the IC50 on Prothrombin is > 50 µM (inconclusive). For the molecule `CCCCCCc1cc2cc(S(=O)(=O)c3ccc(F)c(Cl)c3)c(=O)oc2cc1O`, the EC50 in assay [2] was 17.5 µM (active). In addition, the CC50 with Vero was 10.9 µM (active). On to `Cc1ccc2c(Cl)cc(Cl)c(OCC(=O)NCc3ccco3)c2n1`, for which the IC50 was 12.5 µM (active) in assay [3], < 1.56 µM (active) on Estrogen receptor beta [4] and > 50 µM (not active) against Estrogen receptor beta [5].

For the molecule `Cc1ccc(C)c(NC(=O)c2ccc3ccccc3n2)c1`, the EC50 (in “cells”; in assay [1]) was > 67.5 µM (inactive) throughout. Regarding `C1=C(N2CCOCC2)/C(=C/c2nc3ccccc3[nH]2)CC1`, the IC50 was 23.8 µM (active) at Estrogen receptor beta [4] and > 109 µM (not active) against Estrogen receptor beta [5]. For `CCc1ccc(S(=O)(=O)ON2C(=O)c3ccccc3C2=O)cc1`, the IC50 on Fatty acid synthase [6] was 1.28 µM (active); at Genome polyprotein, > 100 µM (active); on Prothrombin, 1.55 µM (active); at Fatty acid synthase [7], 2.41 µM (active). Turning to `CCn1ncc(Br)c1C(=O)Nc1cc([N+](=O)[O-])ccc1C`, the IC50 against Prothrombin was > 50 µM (not active).

Consider `O=C(O)CCC(=O)NN1C(=O)c2ccccc2NC1c1ccc(F)cc1` (centres undefined), for which the EC50 at Kallikrein-7 was > 0.286 µM (active). Regarding `O=C1NC(Nc2nc3ccccc3s2)(C(F)(F)F)C(=O)N1C1CCCCC1` (centres undefined), in the assay on Vero, the CC50 is 3.44 µM (active).

Consider `O=C(/C=C/Nc1ccc(F)cc1)c1cccs1`, for which the EC50 (in the assay “cells”; in [1]) was > 67.6 µM (inactive) in each case. In the case of `O=C(Nc1ccc(F)cc1)N[C@H]1CC[C@H](CCNC(=O)c2cc(Cl)cc(Cl)c2)O[C@H]1CO`, the results for the AC50 (at Paired box protein Pax-8; in assay [8]) were 8.97 µM (active) and 33 µM (active), respectively. As to `O=C(C[C@@H]1CC[C@@H]2[C@H](COC[C@@H](O)CN2C(=O)c2ccncc2)O1)Nc1ccc(-c2ccccc2)cc1`, the AC50 in assay [9] is 15.3 µM (active). Same read-out and setting: under `C/C=C/c1ccc([C@H]2[C@@H](CO)N(C(=O)Nc3ccccc3F)[C@H]2C#N)cc1` stands 13.7 µM (active).

`COc1cccc(S(=O)(=O)N(C)C[C@@H]2Oc3ncc(C#Cc4ccc(OC)c(OC)c4)cc3C(=O)N([C@H](C)CO)C[C@@H]2C)c1`: the AC50 in [10] is 0.276 µM (active); in assay [11], 0.724 µM (active); in [12], 1.23 µM (active); in assay [13], 0.428 µM (active). Turning to `CCCNC(=O)N1[C@H](C#N)[C@@H](c2ccccc2C2=CCCCC2)[C@@H]1CO`, in assay [9], the AC50 is 4.33 µM (active). Take `O=C(O)c1ccccc1SCC(=O)N1CCOCC1`: on Prothrombin, the IC50 is reported as > 50 µM (not active). Regarding `CC(=O)O[C@@H]1C[C@H]2C(C)(C)C(=O)C=C[C@]2(C)[C@H]2CC[C@@]3(C)[C@H](c4ccoc4)OC(=O)[C@H]4O[C@]43[C@@]21C` [GEDUNIN], the EC50 at Protein RecA was 16.1 µM (active). Moreover, the CC50 in the assay on Vero is 22.2 µM (active). In addition, in [14], the AC50 was 4.57 µM (active).
